Test results published in PMC7580722, “Design of new disubstituted imidazo[1,2-b]pyridazine derivatives as selective Haspin inhibitors. Synthesis, binding mode and anticancer biological evaluation” (Journal of Enzyme Inhibition and Medicinal Chemistry, 2020).
Where two headings read alike, the source gives them in different places. One block for each compound: values may come before it.

Assays:
HCT-116 cells xenografts = system: HCT-116 cells xenografts; design: method as in PMID 21804608; conditions: nude mice xenografts of HCT-116 cells; cited from earlier work
melanoma cancer lines = system: melanoma cancer lines; design: method as in PMID 28928884; conditions: alone or in combination with Trametinib; cited from earlier work
HCT116 spheroids = assay: Spheroid (3D) viability, CellTiter-Glo; type: cell-based, human; conditions: 5 µM, Figure 4(A)
HsPLK1 = target: T1, HsPLK1 (Homo sapiens, UniProt P53350); assay: PLK1 kinase assay; type: biochemical; conditions: Table 4
T1 construct: purchased ProQinase
Description: . We therefore tested our compounds on two obvious candidates, HsCDK1 and HsPLK1 (Polo-like_kinase 1) both required for mitotic entry[50] (Table 4).
(§1) Values are IC50 expressed in µM and calculated from dose–response curves (each point from the curves was performed in duplicate). NR: not relevant. […]
(§2) Recombinant protein kinases were expressed and purified from E. coli (HsHaspin kinase domain aa470-798, HsCdk5/p25, RnDYRK1A kinase domain aa1-499, HsPIM1, MmCLK1) or baculovirus/Sf9 cells (HsCdk2/Cyclin A, HsCdk9/Cyclin T). Native SscCK1δ /ε and SscGSK3α/β were purified from pig brain whereas HsPlk1, HsCdk1 and HsAurora B were purchased from ProQinase and SignalChem respectively. Kinase assays were performed in specific buffers and substrates for each kinase tested in the presence of 15 µM [γ-33P] ATP (3,000 Ci/mmol, 10 mCi/ml; PerkinElmer) in a final volume of 30 µl as previously reported 51. After 30 min incubation at 30°C, the reaction mix was spotted onto GE healthcare P81 phosphocellulose paper using a FilterMate Harvester (PerkinElmer), and the filter was extensively washed with a 1% phosphoric acid solution. The wet filter-bound radioactivity was determined in the presence of 20 µl scintillation fluid (GE healthcare) with a TopCount® Scintillation and Luminescence Counter (PerkinElmer). IC50 values were calculated from dose-response curves

HsCdk2/Cyclin A = target: T2, HsCdk2/Cyclin A (Homo sapiens, UniProt P24941); assay: CDK2 kinase assay; type: biochemical
T2 construct: made in house; host or cells: baculovirus/Sf9 cells
Description: (§3) Values are IC50 expressed in µM and calculated from dose–response curves (each point on the curves was performed in triplicate). Selectivity indexes (SI; in brackets) are calculated as follows: SI = IC50 kinase X/IC50 Haspin. ND: not determined. *IC50 values obtained using the ADP-Glo methodology (see Experimental section, Supplementary Material). […]
(§4) A, HsCdk9/Cyclin T). Native SscCK1δ /ε and SscGSK3α/β were purified from pig brain whereas HsPlk1, HsCdk1 and HsAurora B were purchased from ProQinase and SignalChem respectively. Kinase assays were performed in […]
(§5) mCi/ml; PerkinElmer) in a final volume of 30 µl as previously reported 51. After 30 min incubation at 30°C, the reaction mix was spotted onto GE healthcare P81 phosphocellulose paper using a FilterMate Harvester (PerkinElmer), and the filter was extensively washed with a 1% phosphoric acid solution. The wet filter-bound radioactivity was determined in the presence of 20 µl scintillation fluid (GE healthcare) with a TopCount® Scintillation and Luminescence Counter (PerkinElmer). IC50 values were calculated from dose-response curves […]
(§6) Kinase activities using the ADP-Glo methodology (ADP-Glo Kinase Assay; Promega) were assayed according to the assay described in Nguyen et al. 52 and Ibrahim et al. 53. […]

U-2 OS cells [1] = assay: Cell cycle analysis by flow cytometry (propidium iodide); conditions: for cells in S phase (% of cell total population): DMSO control 51.9%
Description: Figure 6. […] DNA content was measured by flow cytometry and representative profiles are shown. (B) quantification of the proportion of cells in each phase of the cell cycle from the experiment described in (A). Results are mean percentage (n = 3 independent experiments).
Cellular evaluation methods
All media were supplemented with 10% fetal calf serum (unless overwise specified) and 2 mM L-glutamine and cells were cultured
F68-pluronic acid. Cells were fixed for 2h in ice-cold ethanol, then washed twice in PBS containing 0.1% F68-pluronic acid, centrifuged at 200 g and resuspended in a PBS buffer containing 1% Triton, 100 µg/ml RNase A (Thermo Scientific) and 40 µg/ml propidium iodide (Life Technologies). DNA content was determined using a FACS Canto II (BD) and the data were analyzed using FCS Express Cytometry software (De Novo Software).
Twenty thousand events were collected in each run.

U-2 OS spheroids = assay: Spheroid (3D) viability, CellTiter-Glo; type: cell-based, human; conditions: Homo sapiens, U2OS
HBL100 spheroids = assay: Spheroid (3D) viability, CellTiter-Glo; type: cell-based, human; conditions: 5 µM, Figure 4(A)
SH-SY5Y = assay: Cell viability, monolayer (2D), MTS assay; type: cell-based; conditions: Homo sapiens, 48 h
U-2 OS = assay: Cell viability, monolayer (2D), MTS assay; type: cell-based; conditions: Homo sapiens, U2OS, 48 h
HCT116 = assay: Cell viability, monolayer (2D), MTS assay; type: cell-based; conditions: Homo sapiens, HCT-116, 48 h
HBL100 = assay: Cell viability, monolayer (2D), MTS assay; type: cell-based; conditions: Homo sapiens, HBL-100, 48 h
HsCDK1 = target: T3, HsCDK1 (Homo sapiens, UniProt P06493); assay: CDK1 kinase assay; type: biochemical
T3 construct: purchased ProQinase
Description: We therefore tested our compounds on two obvious candidates, HsCDK1 and HsPLK1 (Polo-like_kinase 1) both required for mitotic entry[50]
as §1, §2

[2] = system: Haspin activity (H3T3ph) in U-2 OS cells; assay: In-cell Haspin activity, H3T3ph immunofluorescence; type: cell-based, human; conditions: 24 h; for H3T3ph signal remaining in prometaphase cells (% of ctrl): 0.5 µM; for inhibition at 0.05 µM: Homo sapiens, U2OS, read-out: inhibition of cellular Haspin activity
RPE-1 = assay: Cell viability, monolayer (2D), MTS assay; type: cell-based; conditions: Homo sapiens, 48 h
HsHaspin = target: T4, HsHaspin (Homo sapiens, UniProt Q8TF76); assay: Recombinant Haspin kinase assay ([γ-33P]ATP, 15 µM ATP; some values ADP-Glo); type: biochemical; conditions: average selectivity index over the protein kinases tested vs Haspin
T4 construct: aa470-798; made in house; host or cells: E. coli
T4 sequence (Q8TF76 470-798): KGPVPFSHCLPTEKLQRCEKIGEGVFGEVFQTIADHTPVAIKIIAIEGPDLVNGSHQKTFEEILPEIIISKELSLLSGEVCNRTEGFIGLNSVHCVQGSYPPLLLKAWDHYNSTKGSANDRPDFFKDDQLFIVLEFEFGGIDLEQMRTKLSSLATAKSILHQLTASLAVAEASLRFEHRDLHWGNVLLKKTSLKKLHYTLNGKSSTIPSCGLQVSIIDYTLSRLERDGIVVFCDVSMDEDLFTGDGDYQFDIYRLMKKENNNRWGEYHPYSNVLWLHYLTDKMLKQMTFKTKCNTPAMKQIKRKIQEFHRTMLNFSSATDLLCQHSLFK
Description: as §3, §4, §5, §6

HsAurora B = target: T5, HsAurora B (Homo sapiens, UniProt Q96GD4); assay: Aurora B kinase assay; type: biochemical
T5 construct: purchased SignalChem
Description: as §3
as §2, with “curves […]” for “curves”
as §6

Haspin = target: T6, Haspin (Homo sapiens, UniProt Q8TF76); assay: ATP competition assay on Haspin kinase activity; type: biochemical
T6 construct: aa470-798; made in house; host or cells: E. coli
Description: We first conducted an ATP competition assay with compound 12 on Haspin kinase activity (Figure 3(A)). We tested an ATP concentration range from 5 to 240 µM on compound 12 concentrations ranging from 0.001 to 10 µm.
Figure 3. Binding mode of selected compounds with Haspin. (A) ATP competition assay with compound 12. (B) Crystal structure of Haspin with compound 12. […] (C) Superimposition of the binding mode of compounds 12 (yellow carbon atoms) and 21 (grey carbon atoms) in Haspin active site. The three-letter amino acid code and residue number are labelled next to each side chain.

U-2 OS cells [3] = assay: Scratch wound cell migration assay (IncuCyte); type: cell-based, human; conditions: 0.6 µM, 0.5% FBS, normalised against DMSO control (100%)
[4] = 48 h, 2 days, Figure 4(B), read-out: U-2 OS spheroid remaining viability

T3 sequence (P06493 whole entry): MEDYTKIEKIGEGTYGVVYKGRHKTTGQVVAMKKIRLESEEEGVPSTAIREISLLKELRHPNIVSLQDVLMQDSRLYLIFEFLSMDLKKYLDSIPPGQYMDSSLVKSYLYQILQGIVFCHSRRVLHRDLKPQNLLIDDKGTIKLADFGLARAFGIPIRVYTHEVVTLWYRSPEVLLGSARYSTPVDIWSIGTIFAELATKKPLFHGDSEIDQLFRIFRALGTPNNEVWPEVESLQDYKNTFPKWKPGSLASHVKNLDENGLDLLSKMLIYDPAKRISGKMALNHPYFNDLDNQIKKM
T3 sequence (P14635 whole entry partner): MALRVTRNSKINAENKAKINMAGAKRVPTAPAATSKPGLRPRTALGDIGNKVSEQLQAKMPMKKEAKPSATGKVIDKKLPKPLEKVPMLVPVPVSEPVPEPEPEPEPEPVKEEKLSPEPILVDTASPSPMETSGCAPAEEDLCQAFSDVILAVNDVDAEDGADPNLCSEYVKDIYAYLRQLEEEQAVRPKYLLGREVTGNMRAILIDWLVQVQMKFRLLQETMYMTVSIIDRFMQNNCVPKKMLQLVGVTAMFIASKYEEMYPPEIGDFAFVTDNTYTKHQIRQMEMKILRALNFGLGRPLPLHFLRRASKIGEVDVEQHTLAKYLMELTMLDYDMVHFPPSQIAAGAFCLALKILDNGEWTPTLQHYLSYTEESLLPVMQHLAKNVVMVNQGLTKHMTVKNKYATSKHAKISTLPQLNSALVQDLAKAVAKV
T1 sequence (P53350 whole entry): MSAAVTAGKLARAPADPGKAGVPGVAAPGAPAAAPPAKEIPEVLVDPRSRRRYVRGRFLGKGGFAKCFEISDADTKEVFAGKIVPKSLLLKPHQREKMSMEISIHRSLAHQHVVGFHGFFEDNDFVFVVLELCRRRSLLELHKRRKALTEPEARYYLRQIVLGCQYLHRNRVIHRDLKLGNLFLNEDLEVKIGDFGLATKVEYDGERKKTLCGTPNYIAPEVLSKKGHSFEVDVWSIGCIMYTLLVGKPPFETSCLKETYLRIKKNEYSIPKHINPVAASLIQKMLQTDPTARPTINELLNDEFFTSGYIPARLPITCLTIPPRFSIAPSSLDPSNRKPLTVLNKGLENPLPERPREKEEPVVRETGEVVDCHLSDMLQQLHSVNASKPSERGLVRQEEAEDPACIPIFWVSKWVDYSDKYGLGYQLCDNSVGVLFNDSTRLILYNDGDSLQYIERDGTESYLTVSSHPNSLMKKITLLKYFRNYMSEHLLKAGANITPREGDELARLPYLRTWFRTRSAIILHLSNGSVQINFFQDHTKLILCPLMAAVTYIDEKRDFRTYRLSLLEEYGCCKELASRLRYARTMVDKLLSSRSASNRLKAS
T5 sequence (Q96GD4 whole entry): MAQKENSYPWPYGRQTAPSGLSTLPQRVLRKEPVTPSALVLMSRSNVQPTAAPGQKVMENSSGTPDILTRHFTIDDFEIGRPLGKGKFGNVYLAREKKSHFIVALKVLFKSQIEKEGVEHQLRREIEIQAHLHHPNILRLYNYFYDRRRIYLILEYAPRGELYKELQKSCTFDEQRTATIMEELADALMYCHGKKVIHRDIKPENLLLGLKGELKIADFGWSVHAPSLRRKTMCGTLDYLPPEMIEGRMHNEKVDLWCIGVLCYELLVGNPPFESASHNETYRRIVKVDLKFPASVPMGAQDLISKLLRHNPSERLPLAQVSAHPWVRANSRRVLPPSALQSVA

Compound: CCCNc1ccc2ncc(-c3ccc4[nH]ncc4c3)n2n1 [Compound 5, reference compound]
- effect on angiogenesis and tumour growth (HCT-116 cells xenografts): reduced angiogenesis and tumour growth
- effect on cell viability and mobility of melanoma lines (melanoma cancer lines): affects also cell viability and mobility of several melanoma cancer lines
- HCT116 spheroid viability (HCT116 spheroids; 48 h): without any significant effect
- HCT116 spheroid viability (HCT116 spheroids; 10 days): remained mostly unresponsive
- IC50 (HsPLK1): > 10 µM
- IC50 (HsCdk2/Cyclin A): 0.091 µM
- cells in S phase (% of cell total population) (U-2 OS cells [1]; 2.5 µM, 24 h, U-2 OS): 30.9%
- cell cycle effect (in words) (U-2 OS cells [1]; Figure 2): Cell cycle arrest in G2/M
- viability at 5 µM (U-2 OS spheroids; [4]): 9.7%
- viability at 5 µM (U-2 OS spheroids; 240 h, 10 days, Figure 4(A), read-out: U-2 OS spheroid viability (% of DMSO control)): 1%
- viability at 5 µM (U-2 OS spheroids; 48 h, Figure 4(A), read-out: U-2 OS spheroid viability (% of DMSO control)): 49%
- HBL-100 spheroid viability (% of DMSO control) (HBL100 spheroids; 48 h): without any significant effect
- HBL100 spheroid viability (HBL100 spheroids; 10 days): remained mostly unresponsive
- EC50 (SH-SY5Y): > 10 µM
- EC50 (U-2 OS): 5.1 µM
- EC50 (HCT116): 9 µM
- EC50 (HBL100): > 10 µM
- IC50 (HsCDK1): 0.029 µM
- H3T3ph signal remaining in prometaphase cells (% of ctrl) [2]: 2.5%
- inhibition at 0.05 µM [2]: > 80%
- EC50 (RPE-1): 3.8 µM

- IC50 (HsPLK1): > 10 µM
- IC50 (HsCdk2/Cyclin A; read-out: IC50 CDK2): 0.11 µM
- average SI (HsHaspin): 24.2
- Aurora B inhibition (in words) (HsAurora B): did not inhibit Aurora B kinase
- IC50 (Haspin; 5 µM ATP, read-out: IC50 Haspin at 5 µM ATP): 0.006 µM
- IC50 (Haspin; 240 µM ATP, read-out: IC50 Haspin at 240 µM ATP): 0.95 µM
- EC50 (SH-SY5Y): > 10 µM
- EC50 (HCT116): > 10 µM
- SI CDK1/Haspin (HsCDK1; SI = IC50 CDK1/IC50 Haspin): 0.8
- IC50 (HsCDK1; Table 4, read-out: IC50 HsCDK1): 0.052 µM
Compound: CC[C@H](CO)Nc1ccc2ncc(-c3ccc4[nH]ncc4c3)n2n1 [Compound 12]
- cells in G2/M phase (% of cell total population) (U-2 OS cells [1]; 2.5 µM, 24 h, U-2 OS, DMSO control 12.8%): 29.9%
- cells in S phase (% of cell total population) (U-2 OS cells [1]; 2.5 µM, 24 h, U-2 OS): 34.4%
- viability at 5 µM (U-2 OS spheroids; [4]): 13.1%
- viability at 1 µM (U-2 OS spheroids; 240 h, 1 µM, 10 days, Figure 4(B), read-out: U-2 OS spheroid remaining viability): 66%
- viability at 2.5 µM (U-2 OS spheroids; 240 h, 2.5 µM, 10 days, Figure 4(B), read-out: U-2 OS spheroid remaining viability): 50%
- normalised wound closure after 24 h (U-2 OS cells [3]): 88%
- EC50 (U-2 OS): > 10 µM
- EC50 (HBL100): 6.6 µM
- H3T3ph signal remaining in prometaphase cells (% of ctrl) [2]: 1.9%
- inhibition at 0.05 µM [2]: > 80%
- EC50 (RPE-1): 6.8 µM
